Numbering of substitutions follows the chain as printed.
Key:
[1] = target: T1, BAR-RXRm heterodimers (Rattus norvegicus, UniProt Q62735); assay: Co-activator (GRIP1) recruitment gel shift assay, BAR-RXRm heterodimer; format: binding; conditions: for recruitment of co-activator GRIP1 (gel shift): 32P-labeled IBABP IR1 response element, range of doses
T1 construct: nucleic acid regions encoding the following full-length proteins were cloned into a CMV expression vector; made in house; host or cells: receptors: in vitro translation; GST-GRIP1: E. coli
T1 sequence (Q62735 1-469): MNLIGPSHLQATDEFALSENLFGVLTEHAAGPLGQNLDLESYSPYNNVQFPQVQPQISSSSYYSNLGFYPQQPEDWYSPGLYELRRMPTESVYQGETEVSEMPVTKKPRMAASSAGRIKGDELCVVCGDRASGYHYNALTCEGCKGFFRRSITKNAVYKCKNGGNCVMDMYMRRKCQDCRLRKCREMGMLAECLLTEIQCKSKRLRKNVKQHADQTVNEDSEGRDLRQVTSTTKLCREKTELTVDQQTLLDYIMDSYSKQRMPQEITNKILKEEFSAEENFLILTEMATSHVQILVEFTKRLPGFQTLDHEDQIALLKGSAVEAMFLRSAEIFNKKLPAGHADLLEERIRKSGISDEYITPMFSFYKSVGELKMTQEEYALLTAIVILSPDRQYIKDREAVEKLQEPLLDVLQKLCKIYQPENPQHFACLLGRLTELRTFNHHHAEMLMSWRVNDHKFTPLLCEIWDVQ
T1 sequence (P19793 1-462 D322P partner): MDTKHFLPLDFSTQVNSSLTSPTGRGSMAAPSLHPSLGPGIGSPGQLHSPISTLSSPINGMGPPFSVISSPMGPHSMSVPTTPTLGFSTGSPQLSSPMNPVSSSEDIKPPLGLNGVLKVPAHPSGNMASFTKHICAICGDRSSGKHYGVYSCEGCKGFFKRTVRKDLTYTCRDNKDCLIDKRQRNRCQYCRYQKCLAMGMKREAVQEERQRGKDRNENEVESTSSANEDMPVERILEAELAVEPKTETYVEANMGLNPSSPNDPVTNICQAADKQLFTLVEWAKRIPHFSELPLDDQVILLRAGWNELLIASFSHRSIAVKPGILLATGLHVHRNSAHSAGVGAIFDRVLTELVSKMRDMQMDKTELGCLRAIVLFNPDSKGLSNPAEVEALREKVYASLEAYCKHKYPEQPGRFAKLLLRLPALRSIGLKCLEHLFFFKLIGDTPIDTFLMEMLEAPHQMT
Text: (§1) Coactivators, which bind agonist-activated nuclear receptors including, without limitation, RAR and RXR, function to assist the activated nuclear receptor exert its activity as a transcription factor. Characterized co-activators include CBP, p300, RIP140, SRC-1, ACTR, TIF2 (also called GRIP 1) and TIFI. In most cases coactivator will not bind the receptor in the absence of an agonist, moreover, receptor antagonists will often block coactivator binding, either directly or through the recruitment of a corepressor. Coactivator recruitment assays are therefore a valuable method for directly visualizing associative changes to a receptor caused by the addition of a prospective ligand.
GRIP 1 was expressed as a fusion protein with glutathione-S-transferase, an enzyme which selectively binds glutathione and can thus be used as an affinity reagent. See e.g., U.S. Pat. No. 5,654,176. The GST-GRIP1 fusion protein was expressed in E. coli and purified on glutathione-Sepharose columns. In vitro translated BAR/FXR\RXR (0.6-1.2 μl each) and GST-GRIP 1 (5 μg) were incubated for 30 min at room temperature with 100,000 cpm of the E. coli DNA polymerase Klenow fragment-labeled probes in 10 mM Tris (pH 8.0), 50 mM KCl, 6% glycerol, 0.05% NP-40, 1 mM DTT, 12.5 ng/μl poly dI-dC, and the indicated ligands. Complexes were electrophoresed through 5% polyacrylamide gel in […] (45 mM Tris-base, 45 mM boric acid, 1 mM EDTA) at room temperature. […]
To address the question of whether the two identified compounds are ligands for BAR, we used an in vitro co-activator recruitment assay. […] Because the association between co-activator and receptor results in the formation of a new higher molecular weight species, the ligand-dependent recruitment of co-activator can be detected in gel shift assays and is commonly used as an indicator for ligand binding. […]

[2] = target: T2, BAR:RXR heterodimers (UniProt P19793+Q62735); assay: Co-activator (GRIP1) gel shift displacement assay, BAR:RXR heterodimer; format: binding
T2 construct: nucleic acid regions encoding the following full-length proteins were cloned into a CMV expression vector; made in house; host or cells: receptors: in vitro translation; GST-GRIP1: E. coli
T2 sequence (Q62735 1-469): T1 sequence (Q62735 1-469)
T2 sequence (P19793 1-462): T1 sequence (P19793 1-462 D322P partner) with P322D
Text: as §1
GRIP 1 was expressed as a fusion protein with glutathione-S-transferase, an enzyme which selectively binds glutathione and can thus be used as an affinity reagent. See e.g., U.S. Pat. No. 5,654,176. The GST-GRIP1 fusion protein was expressed in E. coli and purified on glutathione-Sepharose columns. In vitro translated BAR/FXR\RXR (0.6-1.2 μl each) and GST-GRIP 1 (5 μg) were incubated for 30 min at room temperature with 100,000 cpm of the E. coli DNA polymerase Klenow fragment-labeled probes in 10 mM Tris (pH 8.0), 50 mM KCl, 6% glycerol, 0.05% NP-40, 1 mM DTT, 12.5 ng/μl poly dI-dC, and the indicated ligands. Complexes were electrophoresed through 5% polyacrylamide gel in […] (45 mM Tris-base, 45 mM boric acid, 1 mM EDTA) at room temperature. Oligonucleotide probes were made to identify specific receptor dimers; an optimized DR-1 (direct repeat 1; a nucleotide sequence motif to which RXR will bind) probe (5′-[…]) (SEQ ID NO: 12) was used for RXR homodimers and the IR-1 sequence of the IBABP promoter, to which the BAR/RXR heterodimer binds, was used for BAR/RXR heterodimers.
We next tested the ability of AGN34 to displace the GRIP-1 co-activator from BAR. […] Competition experiments using the BAR/RXRm heterodimer binds yielded the same results as obtained using the BAR/RXR heterodimer. (FIG. 4D).

[3] = tested on: AR, mPXR, hPXR, ERα, CARβ, LXRα, PPARα, PPARβ, PPARδ, VDR and TRβ; assay: Activation of other RXR heterodimers / nuclear receptors (transfection assay); format: cell-based

competition (GRIP1 displacement) with BAR/RXRm heterodimer ([1]; AGN 29 as agonist, increasing AGN 34)	doses for full displacement of co-activator, LG 268 versus RXR:BAR-CDCA complexes [2]	dissociation of BAR:RXR:GRIP1 complex ([2]; 0.75 μM AGN 29 as agonist, increasing concentrations of AGN 34)	displacement of co-activator (GRIP1) ([2]; heterodimers in which LG 268 was added)	SMILES	effect on other RXR heterodimers containing nuclear receptors [3]	recruitment of co-activator GRIP1 (gel shift) [1]	formation of BAR:RXR:GRIP1 complex ([2]; 0.75 μM)
same results	Much lower doses	progressive dissociation of that complex	fully displaces	CCCCCCOc1c(\C(C)=C/C=C/C(C)=C/C(=O)O)cc(C(C)C)cc1C(C)C [AGN 34, (2E, 4E, 6Z)-7-(2-Hexyloxy-3,5-diisopropylphenyl)-3-methylocta-2,4,6-trienoic Acid]	–	–	–
–	–	–	–	Cc1cc2c(cc1/C(=C/c1ccc(C(=O)O)cc1)[Si](C)(C)C)C(C)(C)CCC2(C)C [AGN 29, (Z)-4-[2-(3,5,5,8,8-Pentamethy1-5,6,7,8-tetrahydronaphthalen-2-yl)-2-(trimethylsilyl)vinyl]benzoic Acid]	no effect	shifted the majority of the complexes	form a complex
–	–	–	–	CCCC/C(=C\c1ccc(C(=O)O)cc1)c1ccc2c(c1)C(C)(C)CCC2(C)C [AGN 31, 4-[2-(5,5,8,8-Tetramethyl-5,6,7,8-tetrahydronaphthalen-2-yl)hex-1-enyl]benzoic Acid]	no effect	shifted the majority of the complexes	–

Reference: patent publication US20030144360A1, “Composition and method for modulating BAR/FXR receptor activity” (Allergan Sales, Inc., priority 2001, published 2003)
